Results as given in US20220096515A1, “Methods and Formulations for Preventing Neurological or Psychiatric Disorders” (Huntington Medical Research Institutes, priority 2020, published 2022).

Columns and labels:
[1] = system: neuronal cells isolated from the E15 CD1 forebrain; test: Neuronal cell proliferation and long-distance migration in vitro; assay type: cell-based, mouse
Protocol: Isolation and primary culture of neuronal cells: Primary culture of embryonic GABAergic neurons from CD1 telencephalon or after the saline or NAD+ treatment paradigms were performed using established methods. Briefly, embryonic brains were extracted under a stereo microscope and placed into cold PBS. After removal of the pial membrane, the telencephalon was dissected from each embryonic brain. The telencephalon was minced into 1-2 mm slices in cold PBS. Minced telencephalon was treated with 0.1× trypsin/EDTA at 37° C. for 5 min. Trypsin treatment was stopped by adding FBS-DMEM media and DNase I consecutively. Dissociated cells were filtered with a 40 μm cell strainer and finally filtered cells were cultured in poly-D-lysine coated culture dishes with Neurobasal medium (Life technologies) with 1× B-27 (Life technologies) and 1× Glutamax (Life technologies).
Neuronal migration assay: In preparation for cell migration assays, one well square culture inserts (ibidi GmbH) were placed in the center of a poly-Ornithine/Laminin coated 35 mm dish, to make a small rectangular patch that is labeled outside the dish. Embryonic neurons prepared from the saline and NAD+ treated groups were seeded in the inserts in Neurobasal medium, supplemented with 1× B-27 and 1× Glutamax. After the cells had attached, the inserts were removed to initiate cell migration in all 4 quadrants of the dish. After 24 hours, cells were fixed and labeled with anti-β-Tubulin antibody (1:2000, Biolegend). Neuronal migration was assessed by measuring the distance between the final positions of cells from the border of the rectangular patch was outlined on the first day, using ImageJ software.
In one experiment, periventricular endothelial cells were isolated from E15 wildtype (CD1) forebrain and tested the effect of NAD^+ addition in vitro. Exogenous addition of 100 μM NAD^+ was able to initiate significant endothelial cell proliferation within 2 days of culture and a 35 mm culture dish was confluent within 4-6 days (FIGS. 2A-2D). […]

P2X4 = P2X4 mRNA and protein expression in endothelial cells after prenatal treatment; assay type: in vivo, mouse; settings: after six-day treatment paradigm
Protocol: Primary culture of endothelial cells and endothelial cell staining: Embryonic brains were dissected under a stereo-microscope, after the NAD^+ treatment paradigm and the telencephalon was removed. Pial membranes were peeled off. Telencephalon without pial membranes from the periventricular region was pooled. Purity of endothelial cell cultures was established with endothelial cell markers and determined to be one hundred percent. Isolation and culture of endothelial cells were performed according to published methodology. Periventricular endothelial cells were prepared from CD1 (wild type), saline-treated Gabrb3^fl/fl, saline-treated Gabrb3^ECKO, and NAD^+-treated Gabrb3^ECKO embryos. […]
Quantitative real-time PCR: RT was performed by using iScript Reverse Transcription Supermix kit (Bio-Rad). […] The relative gene expression and subsequent fold changes among different samples were determined according to published methodology.
An important aspect that influences endothelial cell proliferation is Ca^2+ influx, which is important for cell cycle progression in the neocortex. […] Therefore, P2X4 expression at both mRNA and protein levels in periventricular endothelial cells were evaluated, prepared after the six-day saline and NAD^+ treatment paradigm (FIGS. 11J-11O). […]

## NC(=O)c1ccc[n+]([C@@H]2O[C@H](COP(=O)([O-])OP(=O)(O)OC[C@H]3O[C@@H](n4cnc5c(N)ncnc54)[C@H](O)[C@@H]3O)[C@@H](O)[C@H]2O)c1 [NAD^+]
[1]; NAD^+ addition
  neuronal cell proliferation: an increase in cell proliferation
[1]; NAD^+ addition, neurons alone
  long-distance migration of neuronal cells: increased long-distance migration of neuronal cells
[1]; neurons seeded on periventricular endothelial cells
  long-distance migration of neuronal cells: more robust
P2X4
  P2X4 mRNA and protein expression: its expression was rescued
